This experiment addresses T1, human AMPK (α2β1γ1) (Homo sapiens, UniProt P54619+P54646+Q9Y478).
T1 construct: made in house; host or cells: E. coli
Nature of the experiment: AMPK (α2β1γ1) activation at molecular level, HTRF KinEASE-STK S1 kinase assay. Format: biochemical. Conditions: activation of human AMPK (α2β1γ1), 4 μM ATP, 45 min at 30° C. Here is the method: 1. Purpose of the experiment: To screen small molecule compounds that can activate AMPK (α2β1γ1).
2. Principle of the experiment: The peptide as substrate contains sites which can be AMPK phosphorylated. One terminal of the peptide is linked with biotin in the reaction system (containing 2 mM MgCl2, 400 μM DTT, 160 nM substrate peptide, 4 μM ATP and 1.6 nM AMPK). In the biotinylated terminal, biotin can link with streptavidin-XL665 (acceptor) so as to complete the labeling. After 45 minute of phosphorylation reaction, the phosphorylated substrate (i.e., product) can bind to an antibody (labeled Donor) which recognizes the phosphorylating site, and the biotin on the other terminal can linked to streptavidin-XL665 (acceptor) so that the resulting FRET signal can be detected with PE Evision. The final AMPK activity is expressed as a ratio of the 665 nm wavelength reading to the 615 nm wavelength reading (665 nm/615 nm).
3. Detection reagent: The human AMPK (α2β1γ1) protein was obtained by expression using an E. coli expression system and purification. HTRF KinEASE-STK S1 kit (purchased from Cisbio's); ATP (purchased from Sigma).
1) 200 nM AMPK (α2β1γ1) protein was incubated with 200 nM CaMKKβ at 30° C. for 4 hours in water bath to completely phosphorylate AMPK.
2) The enzyme reaction system (2 mM MgCl2, […], 160 nM substrate peptide, 4 µM ATP, and 1.6 nM AMPK) was prepared by using a white shallow plate purchased from PE. The reaction was reacted at 30° C. for 45 minutes. Phosphorylated recognizing peptides of the antibody and the XL665 Detection buffer were added and the mixture was incubated at room temperature for 3 hours before the signals were detected.
(In general: TR-FRET usually uses a lanthanide donor and a delayed reading to cut background.)
T1 sequence (P54646 whole entry): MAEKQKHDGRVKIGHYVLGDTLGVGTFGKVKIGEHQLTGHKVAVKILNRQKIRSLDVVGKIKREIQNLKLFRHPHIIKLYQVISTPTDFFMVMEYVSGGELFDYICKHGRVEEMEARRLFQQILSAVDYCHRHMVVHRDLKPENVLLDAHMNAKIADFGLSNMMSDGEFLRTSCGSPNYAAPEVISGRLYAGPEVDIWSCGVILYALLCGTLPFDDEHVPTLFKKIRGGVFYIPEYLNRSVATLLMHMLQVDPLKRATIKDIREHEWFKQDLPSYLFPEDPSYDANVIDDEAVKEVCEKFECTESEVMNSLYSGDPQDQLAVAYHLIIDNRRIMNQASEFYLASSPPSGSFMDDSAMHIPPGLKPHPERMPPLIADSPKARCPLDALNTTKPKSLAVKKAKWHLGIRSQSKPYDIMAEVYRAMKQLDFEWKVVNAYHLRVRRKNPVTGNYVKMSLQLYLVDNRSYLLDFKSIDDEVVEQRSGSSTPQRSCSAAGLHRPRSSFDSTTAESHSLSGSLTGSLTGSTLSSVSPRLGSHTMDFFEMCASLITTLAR
T1 sequence (Q9Y478 whole entry): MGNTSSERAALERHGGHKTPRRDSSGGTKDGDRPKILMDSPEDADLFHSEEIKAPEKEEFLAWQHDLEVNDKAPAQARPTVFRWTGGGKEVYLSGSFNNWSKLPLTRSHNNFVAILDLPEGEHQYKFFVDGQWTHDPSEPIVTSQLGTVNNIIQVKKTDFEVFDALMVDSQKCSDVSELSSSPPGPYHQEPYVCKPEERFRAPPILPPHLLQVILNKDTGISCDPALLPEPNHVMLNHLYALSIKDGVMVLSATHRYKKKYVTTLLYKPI
T1 sequence (P54619 whole entry): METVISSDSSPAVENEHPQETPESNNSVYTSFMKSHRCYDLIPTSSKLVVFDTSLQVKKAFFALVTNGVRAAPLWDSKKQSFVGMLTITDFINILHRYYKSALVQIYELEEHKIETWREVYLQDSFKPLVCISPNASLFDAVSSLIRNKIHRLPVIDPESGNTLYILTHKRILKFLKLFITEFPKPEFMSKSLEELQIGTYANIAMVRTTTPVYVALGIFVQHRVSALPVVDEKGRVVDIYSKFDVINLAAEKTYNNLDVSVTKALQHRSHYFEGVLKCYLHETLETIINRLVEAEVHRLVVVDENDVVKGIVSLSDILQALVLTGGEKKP
As a reminder, the EC50 is the concentration needed to bring the measured effect to its halfway point. The low end stands for an effect from little substance, the high end for a need for much substance. Regarding `O=C(NCc1ccc(OC(F)F)c(OC(F)F)c1)c1ccc(CN2C=C3C(=O)N(c4ccc(F)c(C(F)(F)F)c4)N=C3CC2)cc1` [ZM-31], the “Activation ratio (Fold)” value turned out to be 3.1 Fold and a half-maximal response (EC50) required 5.4 µM. On the same counts, the results for `CCOc1ccc(CNC(=O)c2ccc(CN3CCc4c(c(=O)n(-c5ccc(F)c(C(F)(F)F)c5)n4C)C3)cc2)cc1OC` [ZM-24] are 2.8 Fold and 2.5 µM. As for `COC(=O)c1ccc(CN2C=C3C(=O)N(c4ccc(F)c(C(F)(F)F)c4)N=C3CC2)cc1` [ZM-2, Methyl 4-((2-(4-fluoro-3-(trifluoromethyl)phenyl)-3-oxo-6,7-dihydro-2H-pyrazolo[4,3-c]pyridin-5(3H)-yl)methyl)benzoic acid], a half-maximal response (EC50) required 5.8 µM.

`COC(=O)c1ccc(CN2CCC3=NN(c4ccc(F)c(C(F)(F)F)c4)C(=O)C3C2)cc1` (stereo not drawn) [ZM-3, Methyl 4-((2-(4-fluoro-3-(trifluoromethyl)phenyl)-3-oxo-3a,4,6,7-tetrahydro-2H-pyrazolo[4,3-c]pyridin-5(3H)-yl)methyl)benzoic acid] gave a concentration giving a half-maximal response (EC50) of 9.8 µM. As to `[2H]C([2H])([2H])Oc1ccc(CNC(=O)c2ccc(CN3C=C4C(=O)N(c5ccc(F)c(C(F)(F)F)c5)N=C4CC3)cc2)cc1OC` [ZM-34], the “Activation ratio (Fold)” value came to 2.1 Fold and a half-maximal effect (EC50) was put at 6.3 µM. For `COc1ccc(CNC(=O)c2ccc(CN3C=C4C(=O)N(c5cccc(C(F)(F)F)c5)N=C4CC3)cc2)cc1OC` [ZM-16] the same measures were 3.2 Fold and 5.6 µM. For `COc1ccc(CNC(=O)c2ccc(CN3CCc4c(c(=O)n(-c5ccc(F)c(C(F)(F)F)c5)n4C)C3)cc2)cc1OC` [ZM-5] the same measures were 3.6 Fold and 3.3 µM. For `COc1cc(F)c(CNC(=O)c2ccc(CN3C=C4C(=O)N(c5ccc(F)c(C(F)(F)F)c5)N=C4CC3)cc2)cc1OC` [ZM-20] the same measures were 2.8 Fold and 4.4 µM. On to `COc1cc(CNC(=O)c2ccc(CN3C=C4C(=O)N(c5ccc(F)c(C(F)(F)F)c5)N=C4CC3)cc2)ccc1OC(F)F` [ZM-27], for which the “Activation ratio (Fold)” value worked out at 2.3 Fold and the 50% effective concentration (EC50) was found to be 5 µM.

`COC(=O)c1cccc(CN2CCC3=NN(c4ccc(F)c(C(F)(F)F)c4)C(=O)C3C2)c1` (stereo not drawn) [ZM-4]: the “Activation ratio (Fold)” value amounted to 3.2 Fold and the EC50 was determined as 8.4 µM. On the same counts, the results for `COc1ccc(CNC(=O)c2ccc(CN3C=C4C(=O)N(c5nc6ccccc6s5)N=C4CC3)cc2)cc1OC` [ZM-18] are 2.8 Fold and 6.3 µM. On the same counts, the results for `COc1ccc(CNC(=O)c2cccc(CN3C=C4C(=O)N(c5ccc(F)c(C(F)(F)F)c5)N=C4CC3)c2)cc1OC` [ZM-7] are 2.7 Fold and 4.6 µM.

In the case of `COc1ccc(CNC(=O)c2ccc(CN3C=C4C(=O)N(c5ccc(F)c(C(F)(F)F)c5)N=C4CC3)c(C)c2)cc1OC` [ZM-19], the “Activation ratio (Fold)” value stood at 2.6 Fold and the EC50 stood at 5.6 µM.

As to `O=C(NCc1cccc2c1OCO2)c1ccc(CN2C=C3C(=O)N(c4ccc(F)c(C(F)(F)F)c4)N=C3CC2)cc1` [ZM-13], the “Activation ratio (Fold)” value was determined as 2.5 Fold and it took 3.3 µM to reach a half-maximal effect (EC50). Take `COc1ccc(CN(C)C(=O)c2ccc(CN3C=C4C(=O)N(c5ccc(F)c(C(F)(F)F)c5)N=C4CC3)cc2)cc1OC` [ZM-6]: the “Activation ratio (Fold)” value stood at 3.0 Fold and the EC50 turned out to be 1.1 µM. For `C[C@@H](NC(=O)c1ccc(CN2C=C3C(=O)N(c4ccc(F)c(C(F)(F)F)c4)N=C3CC2)cc1)c1ccccc1` [ZM-14] the same measures were 2.5 Fold and 9.7 µM. For `COc1ccc(C2(NC(=O)c3ccc(CN4C=C5C(=O)N(c6ccc(F)c(C(F)(F)F)c6)N=C5CC4)cc3)CC2)cc1OC` [ZM-28] the same measures were 2.6 Fold and 3.2 µM. For `CCOc1cc(CNC(=O)c2ccc(CN3C=C4C(=O)N(c5ccc(F)c(C(F)(F)F)c5)N=C4CC3)cc2)ccc1OC` [ZM-22] the same measures were 2.9 Fold and 6.7 µM. On to `COc1cc(CNC(=O)c2ccc(CN3C=C4C(=O)N(c5ccc(F)c(C(F)(F)F)c5)N=C4CC3)cc2)ccc1OC(C)C` [ZM-29], for which the “Activation ratio (Fold)” value amounted to 2.9 Fold and the midpoint of the response, the EC50, lay at 9.7 µM. For `COc1cc(CNC(=O)c2ccc(CN3CCc4c(c(=O)n(-c5ccc(F)c(C(F)(F)F)c5)n4C)C3)cc2)ccc1OC(C)C` [ZM-25], the “Activation ratio (Fold)” value is recorded as 3.1 Fold and the EC50 came to 2.5 µM.

Turning to `O=C(NCc1ccc2c(c1)OCO2)c1ccc(CN2C=C3C(=O)N(c4ccc(F)c(C(F)(F)F)c4)N=C3CC2)cc1` [ZM-12], the “Activation ratio (Fold)” value amounted to 3.0 Fold and the EC50 was determined as 5 µM. For `CCOc1cc(CNC(=O)c2ccc(CN3CCc4c(c(=O)n(-c5ccc(F)c(C(F)(F)F)c5)n4C)C3)cc2)ccc1OC` [ZM-26] the same measures were 2.3 Fold and 3 µM. For `CCNC(=O)c1ccc(CN2C=C3C(=O)N(c4ccc(F)c(C(F)(F)F)c4)N=C3CC2)cc1` [ZM-10] the same measures were 2.7 Fold and 10 µM. For `CCOc1ccc(CNC(=O)c2ccc(CN3C=C4C(=O)N(c5ccc(F)c(C(F)(F)F)c5)N=C4CC3)cc2)cc1OC` [ZM-23], the “Activation ratio (Fold)” value was 3.0 Fold and a half-maximal response (EC50) required 5.4 µM. Consider `COc1ccc(CNC(=O)c2ccc(CN3CCC4=NN(c5ccc(F)c(C(F)(F)F)c5)C(=O)C4(C)C3)cc2)cc1OC` (stereo not drawn) [ZM-33], for which the “Activation ratio (Fold)” value came out at 2.7 Fold and the EC50 amounted to 7.8 µM. Turning to `COc1cccc(CNC(=O)c2ccc(CN3C=C4C(=O)N(c5ccc(F)c(C(F)(F)F)c5)N=C4CC3)cc2)c1` [ZM-9], the “Activation ratio (Fold)” value was 2.8 Fold and the EC50 was 5.3 µM. In the case of `COc1ccc(CNC(=O)c2ccc(CN3C=C4C(=O)N(c5ccc(S(N)(=O)=O)cc5)N=C4CC3)cc2)cc1OC` [ZM-17], the “Activation ratio (Fold)” value amounted to 2.1 Fold and the midpoint of the response, the EC50, lay at 9.5 µM. On the same counts, the results for `O=C(NCC1CCCCC1)c1ccc(CN2C=C3C(=O)N(c4ccc(F)c(C(F)(F)F)c4)N=C3CC2)cc1` [ZM-15] are 2.2 Fold and 5.8 µM. As to `COc1cc(CNC(=O)c2ccc(CN3C=C4C(=O)N(c5ccc(F)c(C(F)(F)F)c5)N=C4CC3)cc2)cc(OC)c1OC` [ZM-11], the “Activation ratio (Fold)” value is reported as 3.5 Fold and a half-maximal response (EC50) required 7.5 µM. For `O=C(NCc1ccccc1)c1ccc(CN2C=C3C(=O)N(c4ccc(F)c(C(F)(F)F)c4)N=C3CC2)cc1` [ZM-8] the same measures were 3.0 Fold and 8.6 µM. On the same counts, the results for `Nc1ncnc2c1ncn2[C@@H]1O[C@H](COP(=O)(O)O)[C@@H](O)[C@H]1O` [AMP, reference compound] are 2.6 Fold and 0.3 µM. With `COc1cc(CNC(=O)c2ccc(CN3C=C4C(=O)N(c5ccc(F)c(C(F)(F)F)c5)N=C4CC3)cc2)ccc1O` [ZM-30], the “Activation ratio (Fold)” value is on record as 2.7 Fold and the EC50 turned out to be 8.6 µM. Consider `COc1ccc(C(C)(C)NC(=O)c2ccc(CN3C=C4C(=O)N(c5ccc(F)c(C(F)(F)F)c5)N=C4CC3)cc2)cc1OC` [ZM-21], for which the “Activation ratio (Fold)” value is 2.2 Fold and the EC50 stood at 4 µM. For `COc1ccc(CNC(=O)c2ccc(CN3C=C4C(=O)N(c5ccc(F)c(C(F)(F)F)c5)N=C4CC3)cc2)cc1OC(F)F` [ZM-32], the “Activation ratio (Fold)” value turned out to be 2.4 Fold and a half-maximal effect (EC50) was put at 4.1 µM.
